The record followed here is patent publication US20100056524A1, “Compound” (priority 2008, published 2010).

Counter-ions that a name gives are not always drawn. Like-named read-outs stand apart in the source and are kept apart here.

The test deals with T1, TBK1 (Homo sapiens, UniProt Q9UHD2).
T1 construct: All protein kinases were of human origin and encoded full length proteins, unless indicated otherwise; His6; made in house; host or cells: insect Sf21 cells
T1 sequence (Q9UHD2 1-729): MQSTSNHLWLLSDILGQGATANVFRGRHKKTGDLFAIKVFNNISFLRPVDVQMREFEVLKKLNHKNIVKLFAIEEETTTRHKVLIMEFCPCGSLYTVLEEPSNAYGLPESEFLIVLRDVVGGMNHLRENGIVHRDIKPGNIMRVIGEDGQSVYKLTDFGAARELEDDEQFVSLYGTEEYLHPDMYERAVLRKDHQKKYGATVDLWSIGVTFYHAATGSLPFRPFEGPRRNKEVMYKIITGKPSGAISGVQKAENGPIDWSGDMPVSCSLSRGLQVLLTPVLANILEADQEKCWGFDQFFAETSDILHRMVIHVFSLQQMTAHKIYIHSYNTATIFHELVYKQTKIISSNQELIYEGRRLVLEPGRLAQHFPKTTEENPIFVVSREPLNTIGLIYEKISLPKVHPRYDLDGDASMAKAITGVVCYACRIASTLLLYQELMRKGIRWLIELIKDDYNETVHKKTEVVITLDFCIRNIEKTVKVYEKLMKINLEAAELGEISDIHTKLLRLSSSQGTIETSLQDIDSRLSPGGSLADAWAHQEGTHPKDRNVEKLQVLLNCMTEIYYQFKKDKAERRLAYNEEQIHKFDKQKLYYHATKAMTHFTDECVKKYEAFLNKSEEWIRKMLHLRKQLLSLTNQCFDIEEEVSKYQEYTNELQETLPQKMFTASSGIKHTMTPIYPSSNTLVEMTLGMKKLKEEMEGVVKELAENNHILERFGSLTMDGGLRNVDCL
Description: TBK1 protein kinase assay ([γ-33P]ATP, P81 filterplates). The class given is biochemical. Conditions: for IC50: 50 μM ATP. The method, boiled down: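 Human TBK1 assayed for 30 min with peptide substrate (300 μM), 50 μM [γ-33P]ATP and 10 mM magnesium acetate in 50 mM Tris/HCl pH 7.5, 0.1 mM EGTA, 0.1% 2-mercaptoethanol. Stopped with orthophosphoric acid and counted on P81 filters. IC50 from 10 compound concentrations.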

The mark [1] stands for this setting: read-out: Potency (TBK1 IC50 potency score).

For orientation: IC50 means the concentration that inhibits the measured activity by half. As for `O=C(NCCCNc1nc(Nc2cnn(CC3CC3)c2)ncc1C1CC1)C1CCC1` [Example 201, Cyclobutanecarboxylic acid {3-[5-cyclopropyl-2-(1-cyclopropylmethyl-1H-pyrazol-4-ylamino)-pyrimidin-4-ylamino]-propyl}-amide], the half-maximal inhibitory concentration (IC50) under setting [1] is below 100 nM.

On to `CC(C)n1cc(Nc2ncc(C3CC3)c(NCCCNC(=O)C3CCC3)n2)cn1` [Example 161, Cyclobutanecarboxylic acid {3-[5-cyclopropyl-2-(1-isopropyl-1H-pyrazol-4-ylamino)-pyrimidin-4-ylamino]-propyl}-amide], for which the IC50 under setting [1] is below 100 nM.

Turning to `Cc1ccc(Nc2ncc(C3CC3)c(NCCCNC(=O)c3cccs3)n2)cn1` [Example 30, Thiophene-2-carboxylic acid {3-[5-cyclopropyl-2-(6-methyl-pyridin-3-ylamino)-pyrimidin-4-ylamino]-propyl}-amide], under setting [1], the IC50 lay within 1000 to 10000 nM.

For the compound `O=C(NCCCNc1nc(Nc2cccc(C(=O)N3CCOCC3)c2)ncc1C1CC1)C1CCC1` [Example 75, Cyclobutanecarboxylic acid (3-{5-cyclopropyl-2-[3-(morpholine-4-carbonyl)-phenylamino]-pyrimidin-4-ylamino}-propyl)-amide], the 50% inhibitory concentration (IC50) under setting [1] is below 100 nM.

`CCc1cnc(Nc2cccc(F)c2)nc1NCCCNC(=O)C1CCC1` [Compound D, cyclobutanecarboxylic acid {3-[5-ethyl-2-(3-fluoro-phenylamino)-pyrimidin-4-ylamino]-propyl}-amide, reference compound]: the IC50 (Table 5, read-out: TBK1 IC50) was found to be 42 nM. In addition, the “fold loss in activity against TBK1 compared to Example 23” value (from TBK1 IC50 values of Table 5) was 10 fold.

Take `Cn1ncc2ccc(Nc3ncc(C4CC4)c(NCCCNC(=O)C4CCC4)n3)cc21` [Example 139, Cyclobutanecarboxylic acid {3-[5-cyclopropyl-2-(1-methyl-1H-indazol-6-ylamino)-pyrimidin-4-ylamino]-propyl}-amide]: the half-maximal inhibitory concentration (IC50) under setting [1] was below 100 nM.

Consider `O=C(NCCCNc1nc(Nc2ccc(N3CCOCC3)cc2)ncc1C1CC1)C1CCC1` [Example 166, Cyclobutanecarboxylic acid {3-[5-cyclopropyl-2-(4-morpholin-4-yl-phenylamino)-pyrimidin-4-ylamino]-propyl}-amide], for which the IC50 under setting [1] was below 100 nM.

In the case of `CS(=O)(=O)Nc1cccc(Nc2ncc(C3CC3)c(NCCCNC(=O)c3cccs3)n2)c1` [Example 32, Thiophene-2-carboxylic acid {3-[5-cyclopropyl-2-(3-methanesulfonylamino-phenylamino)-pyrimidin-4-ylamino]-propyl}-amide trifluoroacetic acid salt], the 50% inhibitory concentration (IC50) under setting [1] was below 100 nM.

In the case of `CC(=O)Nc1cccc(Nc2ncc(C3CC3)c(NCCCNC(=O)C3CCC3)n2)c1` [Example 68, Cyclobutanecarboxylic acid {3-[2-(3-acetylamino-phenylamino)-5-cyclopropyl-pyrimidin-4-ylamino]-propyl}-amide], under setting [1], the concentration for half-maximal inhibition (IC50) was below 100 nM.

In the case of `O=C(NCCCNc1nc(Nc2ccc(C(=O)N3CCOCC3)cc2)ncc1C1CC1)C1CCC1` [Example 174, Cyclobutanecarboxylic acid (3-{5-cyclopropyl-2-[4-(morpholine-4-carbonyl)-phenylamino]-pyrimidin-4-ylamino}-propyl)-amide], the IC50 under setting [1] was below 100 nM.

Consider `O=C(CC1CC1)NCCCNc1nc(Nc2cccc(F)c2)ncc1C1CC1` [Example 24, 2-Cyclopropyl-N-{3-[5-cyclopropyl-2-(3-fluoro-phenylamino)-pyrimidin-4-ylamino]-propyl}-acetamide], for which, under setting [1], the concentration for half-maximal inhibition (IC50) was below 100 nM.

On to `O=C(NCCCNc1nc(Nc2cnn(CCN3CCCCC3)c2)ncc1C1CC1)C1CCC1` [Example 160, Cyclobutanecarboxylic acid (3-{5-cyclopropyl-2-[1-(2-piperidin-1-yl-ethyl)-1H-pyrazol-4-ylamino]-pyrimidin-4-ylamino}-propyl)-amide], for which, under setting [1], the half-maximal inhibitory concentration (IC50) was below 100 nM.

Take `CN1CCC(Oc2ccc(Nc3ncc(C4CC4)c(NCCCNC(=O)C4CCC4)n3)cn2)CC1` [Example 195, Cyclobutanecarboxylic acid (3-{5-cyclopropyl-2-[6-(1-methyl-piperidin-4-yloxy)-pyridin-3-ylamino]-pyrimidin-4-ylamino}-propyl)-amide]: the 50% inhibitory concentration (IC50) under setting [1] is below 100 nM.

Regarding `O=C(NCCCNc1nc(Nc2cccc(CO)c2)ncc1C1CC1)C1CCC1` [Example 70, Cyclobutanecarboxylic acid {3-[5-cyclopropyl-2-(3-hydroxymethyl-phenylamino)-pyrimidin-4-ylamino]-propyl}-amide. xHCl salt], the IC50 under setting [1] was below 100 nM.

Take `CC(C)N1CCC(n2cc(Nc3ncc(C4CC4)c(NCCCNC(=O)C4CCC4)n3)cn2)CC1` [Example 203, Cyclobutanecarboxylic acid (3-{5-cyclopropyl-2-[1-(1-isopropyl-piperidin-4-yl)-1H-pyrazol-4-ylamino]-pyrimidin-4-ylamino}-propyl)-amide]: the concentration for half-maximal inhibition (IC50) under setting [1] is below 100 nM.

As to `O=C(NCCCNc1nc(Nc2ccc(-c3cn[nH]c3)nc2)ncc1C1CC1)C1CCC1` [Example 118, Cyclobutanecarboxylic acid (3-{5-cyclopropyl-2-[6-(1H-pyrazol-4-yl)-pyridin-3-ylamino]-pyrimidin-4-ylamino}-propyl)-amide], the IC50 under setting [1] was below 100 nM.

Turning to `O=C(NCCCNc1nc(Nc2ccc(N3CCCC3)nc2)ncc1C1CC1)C1CCC1` [Example 151, Cyclobutanecarboxylic acid {3-[5-cyclopropyl-2-(6-pyrrolidin-1-yl-pyridin-3-ylamino)-pyrimidin-4-ylamino]-propyl}-amide], under setting [1], the IC50 is below 100 nM.

As for `CN(C)CCN(C)C(=O)c1ccc(Nc2ncc(C3CC3)c(NCCCNC(=O)C3CCC3)n2)cc1` [Example 176, 4-{4-[3-(Cyclobutanecarbonyl-amino)-propylamino]-5-cyclopropyl-pyrimidin-2-ylamino}-N-(2-dimethylamino-ethyl)-N-methyl-benzamide], the IC50 under setting [1] is below 100 nM.

For `O=C(NCCCNc1nc(Nc2cnn(CCN3CCOCC3)c2)ncc1C1CC1)C1CCC1` [Example 155, Cyclobutanecarboxylic acid (3-{5-cyclopropyl-2-[1-(2-morpholin-4-yl-ethyl)-1H-pyrazol-4-ylamino]-pyrimidin-4-ylamino}-propyl)-amide], the IC50 under setting [1] is below 100 nM.

With `CC(c1cccc(Nc2ncc(C3CC3)c(NCCCNC(=O)C3CCC3)n2)c1)N1CCOCC1` (stereo not shown) [Example 123, Cyclobutanecarboxylic acid (3-{5-cyclopropyl-2-[3-(1-morpholin-4-yl-ethyl)-phenylamino]-pyrimidin-4-ylamino}-propyl)-amide], the half-maximal inhibitory concentration (IC50) under setting [1] is below 100 nM.

With `O=C(NCCCNc1nc(Nc2cnn(C3CCOCC3)c2)ncc1C1CC1)C1CCC1` [Example 192, Cyclobutanecarboxylic acid (3-{5-cyclopropyl-2-[1-(tetrahydro-pyran-4-yl)-1H-pyrazol-4-ylamino]-pyrimidin-4-ylamino}-propyl)-amide], the IC50 under setting [1] was below 100 nM.

As for `COCCNC(=O)c1cccc(Nc2ncc(C3CC3)c(NCCCNC(=O)C3CCC3)n2)c1` [Example 73, 3-{4-[3-(Cyclobutanecarbonyl-amino)-propylamino]-5-cyclopropyl-pyrimidin-2-ylamino}-N-(2-methoxy-ethyl)-benzamide], the IC50 under setting [1] is below 100 nM.

`O=C(NCCCNc1nc(Nc2cccc(CN3CCCC3)c2)ncc1C1CC1)C1CCC1` [Example 131, Cyclobutanecarboxylic acid {3-[5-cyclopropyl-2-(3-pyrrolidin-1-ylmethyl-phenylamino)-pyrimidin-4-ylamino]-propyl}-amide]: the 50% inhibitory concentration (IC50) under setting [1] is below 100 nM.

`O=C(NCCCNc1nc(Nc2ccc(-c3ccncc3)nc2)ncc1C1CC1)C1CCC1` [Example 119, Cyclobutanecarboxylic acid {3-[2-([2,4′]bipyridinyl-5-ylamino)-5-cyclopropyl-pyrimidin-4-ylamino]-propyl}-amide]: the IC50 under setting [1] was below 100 nM.

As for `O=C1Cc2cc(Nc3ncc(C4CC4)c(NCCCNC(=O)C4CCC4)n3)ccc2N1` [Example 170, Cyclobutanecarboxylic acid {3-[5-cyclopropyl-2-(2-oxo-2,3-dihydro-1H-indol-5-ylamino)-pyrimidin-4-ylamino]-propyl}-amide], the IC50 under setting [1] was below 100 nM.

As to `O=C(NCCCNc1nc(Nc2cccc(F)c2)ncc1C1CC1)c1cocn1` [Example 19, Oxazole-4-carboxylic acid {3-[5-cyclopropyl-2-(3-fluoro-phenylamino)-pyrimidin-4-ylamino]-propyl}-amide], the IC50 under setting [1] lay within 100 to 1000 nM.

As for `O=C(NCCCNc1nc(Nc2ccc3c(c2)CN(CCO)C3=O)ncc1C1CC1)C1CCC1` [Example 168, Cyclobutanecarboxylic acid (3-{5-cyclopropyl-2-[2-(2-hydroxy-ethyl)-1-oxo-2,3-dihydro-1H-isoindol-5-ylamino]-pyrimidin-4-ylamino}propyl)-amide], under setting [1], the concentration for half-maximal inhibition (IC50) was below 100 nM.
